Experimental findings from ChEMBL document CHEMBL2380271, “Synthesis and biological evaluation of a class of quinolone triazoles as potential antimicrobial agents and their interactions with calf thymus DNA” (2013) are described below.

Each structure is given as a SMILES string. Converted amounts (≈) assume the structure as drawn. The source made the active and inactive calls. No cut-off for these calls is given here.

One assay relates to Salmonella typhi. As to the kind of experiment: Antibacterial activity against Eberthella typhosa by NCCLS method. As to conditions: Salmonella enterica. In kind it is functional, Salmonella enterica subsp. enterica serovar Typhi.
Assay [1] relates to Staphylococcus aureus. The experiment in a line: Antibacterial activity against methicillin-resistant Staphylococcus aureus N315 by NCCLS method. In kind it is functional.
The test system of assay [2] is DNA. As to the kind of experiment: Binding affinity to calf thymus DNA-NR complex assessed as decrease in fluorescence intensity at 640 nm wavelength. In kind it is nucleic-acid assay. Conditions: Bos taurus.
The next assay concerns Saccharomyces cerevisiae. The experiment in a line: Antifungal activity against Saccharomyces cerevisiae by NCCLS method. In kind it is functional.
The subject of another assay is Candida albicans. As to the kind of experiment: Antifungal activity against Candida albicans by NCCLS method. In kind it is functional.
The test system of assay [3] is Aspergillus flavus. As to the kind of experiment: Antifungal activity against Aspergillus flavus by NCCLS method. In kind it is functional.
The next assay has as its system Shigella dysenteriae. The experiment in a line: Antibacterial activity against Shigella dysenteriae by NCCLS method. In kind it is functional.
Another assay relates to Pseudomonas aeruginosa. As to the kind of experiment: Antibacterial activity against Pseudomonas aeruginosa by NCCLS method. In kind it is functional.
Assay [4] deals with DNA. The experiment in a line: Binding affinity to calf thymus DNA at 0.5 to 3x10'-5 mol/L by fluorescence quenching assay. In kind it is nucleic-acid assay. Conditions: Bos taurus.
The test system of assay [5] is DNA. As to the kind of experiment: Binding affinity to calf thymus DNA assessed as blue shift by UV-vis spectroscopic analysis. In kind it is nucleic-acid assay. As to conditions: Bos taurus.
The test system of assay [6] is Staphylococcus aureus. As to the kind of experiment: Antibacterial activity against Staphylococcus aureus ATCC 25923 by NCCLS method. In kind it is functional.
Assay [7] has as its system DNA. As to the kind of experiment: Binding affinity to calf thymus DNA by fluorescence quenching assay in presence of potassium iodide. In kind it is nucleic-acid assay. As to conditions: Bos taurus.
The test system of a further assay is Escherichia coli. The experiment in a line: Antibacterial activity against Escherichia coli DH52 by NCCLS method. In kind it is functional.
The test system of another assay is Cyberlindnera jadinii. As to the kind of experiment: Antifungal activity against Candida utilis by NCCLS method. Conditions: Williopsis jadinii. In kind it is functional.
The test system of the next assay is Micrococcus luteus. As to the kind of experiment: Antibacterial activity against Micrococcus luteus ATCC 4698 by NCCLS method. In kind it is functional.
Assay [8] deals with DNA. The experiment in a line: Competitive binding affinity to calf thymus DNA by UV-vis spectroscopic analysis in presence of neutral red. Conditions: Bos taurus. In kind it is nucleic-acid assay.
The test system of assay [9] is DNA. As to the kind of experiment: Binding affinity to calf thymus DNA-NR complex assessed as increase in fluorescence intensity at 726 nm wavelength. In kind it is nucleic-acid assay. As to conditions: Bos taurus.
Assay [10] has as its system Staphylococcus aureus. The experiment in a line: Ratio of norfloxacin MIC to compound MIC for methicillin-resistant Staphylococcus aureus N315. In kind it is functional.
Assay [11] has as its system Staphylococcus aureus. As to the kind of experiment: Ratio of chloromycin MIC to compound MIC for methicillin-resistant Staphylococcus aureus N315. In kind it is functional.
Assay [12] relates to Aspergillus flavus. As to the kind of experiment: Ratio of Fluconazole MIC to compound MIC for Aspergillus flavus. In kind it is functional.

Broadly, the MIC is the lowest concentration found to suppress growth. A high value points to weaker potency.

Turning to `Cc1ccc2c(c1)c(=O)c(C(=O)O)cn2CC(O)Cn1cncn1` (configuration not stated), the MIC turned out to be 8 µg/mL (≈ 24.4 µM) against Salmonella typhi; 8 µg/mL (≈ 24.4 µM) with Staphylococcus aureus [1]; 4 µg/mL (≈ 12.2 µM) in the assay with Saccharomyces cerevisiae; 2 µg/mL (≈ 6.09 µM) in the assay on Candida albicans; 0.5 µg/mL (≈ 1.52 µM) against Aspergillus flavus [3]; 32 µg/mL (≈ 97.5 µM) with Shigella dysenteriae. The MIC against Pseudomonas aeruginosa is 16 µg/mL (≈ 48.7 µM); against Staphylococcus aureus [6], 32 µg/mL (≈ 97.5 µM); against Escherichia coli it was 32 µg/mL (≈ 97.5 µM); against Cyberlindnera jadinii, more than 512 µg/mL; against Micrococcus luteus, 16 µg/mL (≈ 48.7 µM). Also, the result with DNA [2], in the assay with DNA [4], in the assay on DNA [8] and with DNA [9] was Active. The K with DNA [5] is 1.43 ×10³ L/mol. Also, the KSV in the assay with DNA [7] turned out to be 6.53 L/mol.
As for `O=C(O)c1cn(CC(O)Cn2cncn2)c2cc(C(F)(F)F)ccc2c1=O` (configuration not stated), the MIC against Salmonella typhi turned out to be 4 µg/mL (≈ 10.5 µM); with Staphylococcus aureus [1], 1 µg/mL (≈ 2.62 µM); in the assay with Saccharomyces cerevisiae it was 256 µg/mL (≈ 670 µM); in the assay on Candida albicans, 1 µg/mL (≈ 2.62 µM); against Aspergillus flavus [3], 512 µg/mL (≈ 1340 µM); in the assay on Shigella dysenteriae, 1 µg/mL (≈ 2.62 µM). In addition, the MIC is 8 µg/mL (≈ 20.9 µM) against Pseudomonas aeruginosa; 1 µg/mL (≈ 2.62 µM) against Staphylococcus aureus [6]; 8 µg/mL (≈ 20.9 µM) against Escherichia coli; more than 512 µg/mL in the assay with Cyberlindnera jadinii; 2 µg/mL (≈ 5.23 µM) in the assay with Micrococcus luteus. For the same molecule, the Ratio in the assay with Staphylococcus aureus [10] turned out to be 8; with Staphylococcus aureus [11], 16.
Turning to `CCOC(=O)c1cn(CC(O)Cn2cncn2)c2c(Cl)cc(Cl)cc2c1=O` (racemic), the MIC was determined as 4 µg/mL (≈ 9.73 µM) in the assay on Salmonella typhi; 1 µg/mL (≈ 2.43 µM) against Staphylococcus aureus [1]; 32 µg/mL (≈ 77.8 µM) with Saccharomyces cerevisiae; 512 µg/mL (≈ 1240 µM) in the assay on Candida albicans; 0.5 µg/mL (≈ 1.22 µM) against Aspergillus flavus [3]; 128 µg/mL (≈ 311 µM) with Shigella dysenteriae. In addition, the MIC is 4 µg/mL (≈ 9.73 µM) in the assay on Pseudomonas aeruginosa; 1 µg/mL (≈ 2.43 µM) with Staphylococcus aureus [6]; 4 µg/mL (≈ 9.73 µM) in the assay on Escherichia coli; more than 512 µg/mL in the assay with Cyberlindnera jadinii; 8 µg/mL (≈ 19.5 µM) in the assay with Micrococcus luteus. Further, the Ratio is listed as 8 in the assay with Staphylococcus aureus [10] and 16 with Staphylococcus aureus [11].
`CCOC(=O)c1cn(CC2CO2)c2cc(C(F)(F)F)ccc2c1=O` (racemic): the MIC was found to be 2 µg/mL (≈ 5.86 µM) against Salmonella typhi; 0.5 µg/mL (≈ 1.47 µM) against Staphylococcus aureus [1]; 8 µg/mL (≈ 23.4 µM) in the assay on Saccharomyces cerevisiae; 4 µg/mL (≈ 11.7 µM) in the assay with Candida albicans; 0.5 µg/mL (≈ 1.47 µM) against Aspergillus flavus [3]; 256 µg/mL (≈ 750 µM) in the assay with Shigella dysenteriae. For the same molecule, the MIC in the assay with Pseudomonas aeruginosa is 64 µg/mL (≈ 188 µM); in the assay with Staphylococcus aureus [6], 256 µg/mL (≈ 750 µM); against Escherichia coli, 64 µg/mL (≈ 188 µM); with Cyberlindnera jadinii, more than 512 µg/mL; against Micrococcus luteus, 128 µg/mL (≈ 375 µM). Besides, the Ratio in the assay with Staphylococcus aureus [10] stood at 16; with Aspergillus flavus [12] it was 256; in the assay on Staphylococcus aureus [11], 32.
